Assay results reported in ChEMBL document CHEMBL4507258 (2021).

Legend:
[1] = target: Cyclin-dependent kinase 3 (Homo sapiens) (UniProt Q00526); details: Compound concentration 1000.0 nM
[2] = target: Serine/threonine-protein kinase 25 (Homo sapiens) (UniProt O00506); details: Compound concentration 1000.0 nM
[3] = tested on: Phosphatidylinositol 4,5-bisphosphate 3-kinase catalytic subunit alpha isoform (Homo sapiens), P42336 [M1043I]; details: Compound concentration 1000.0 nM
[4] = target: Receptor-interacting serine/threonine-protein kinase 4 (Homo sapiens) (UniProt P57078); details: Compound concentration 1000.0 nM
[5] = tested on: Proto-oncogene tyrosine-protein kinase receptor Ret (Homo sapiens), P07949 [V804L]; details: Compound concentration 1000.0 nM
[6] = target: cAMP-dependent protein kinase catalytic subunit beta (Homo sapiens) (UniProt P22694); details: Compound concentration 1000.0 nM
[7] = target: Non-receptor tyrosine-protein kinase TYK2 (Homo sapiens) (UniProt P29597); details: Compound concentration 1000.0 nM
[8] = target: Tyrosine-protein kinase ABL1 (Homo sapiens) (UniProt P00519); details: Compound concentration 1000.0 nM
[9] = target: Serine/threonine-protein kinase BRSK2 (Homo sapiens) (UniProt Q8IWQ3); details: Compound concentration 1000.0 nM
[10] = target: Ribosomal protein S6 kinase alpha-6 (Homo sapiens) (UniProt Q9UK32); details: Compound concentration 1000.0 nM
Ribosomal protein S6 kinase alpha-6 (Homo sapiens), sequence (Q9UK32 whole entry): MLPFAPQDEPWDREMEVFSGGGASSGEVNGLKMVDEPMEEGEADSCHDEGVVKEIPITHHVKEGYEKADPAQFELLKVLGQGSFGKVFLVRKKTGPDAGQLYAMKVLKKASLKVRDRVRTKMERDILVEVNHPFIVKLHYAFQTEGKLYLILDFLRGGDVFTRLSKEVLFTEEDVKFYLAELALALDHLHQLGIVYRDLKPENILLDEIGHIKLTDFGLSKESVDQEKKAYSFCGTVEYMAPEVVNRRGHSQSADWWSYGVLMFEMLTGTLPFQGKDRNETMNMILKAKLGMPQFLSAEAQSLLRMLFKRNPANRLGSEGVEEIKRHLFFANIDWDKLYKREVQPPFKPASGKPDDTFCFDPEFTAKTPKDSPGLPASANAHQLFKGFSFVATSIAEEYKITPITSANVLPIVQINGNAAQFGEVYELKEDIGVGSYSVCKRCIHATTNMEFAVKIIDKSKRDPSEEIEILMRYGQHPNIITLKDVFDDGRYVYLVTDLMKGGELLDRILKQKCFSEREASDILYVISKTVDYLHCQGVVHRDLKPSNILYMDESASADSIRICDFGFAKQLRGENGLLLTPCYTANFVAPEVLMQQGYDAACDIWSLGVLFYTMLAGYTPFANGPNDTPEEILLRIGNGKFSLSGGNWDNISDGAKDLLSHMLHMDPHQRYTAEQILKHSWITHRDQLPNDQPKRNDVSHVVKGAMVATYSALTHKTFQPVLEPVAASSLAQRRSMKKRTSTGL

[11] = target: Activated CDC42 kinase 1 (Homo sapiens) (UniProt Q07912); details: Compound concentration 1000.0 nM
[12] = target: STE20/SPS1-related proline-alanine-rich protein kinase (Homo sapiens) (UniProt Q9UEW8); details: Compound concentration 1000.0 nM
[13] = target: Cyclin-dependent kinase 2 homolog (Plasmodium falciparum (isolate 3D7)) (UniProt P61075); details: Compound concentration 1000.0 nM
[14] = target: Serine/threonine-protein kinase 32B (Homo sapiens) (UniProt Q9NY57); details: Compound concentration 1000.0 nM
[15] = tested on: Mast/stem cell growth factor receptor Kit (Homo sapiens), P10721 [V559D,T670I]; details: Compound concentration 1000.0 nM
[16] = target: Myosin light chain kinase family member 4 (Homo sapiens) (UniProt Q86YV6); details: Compound concentration 1000.0 nM
Myosin light chain kinase family member 4 (Homo sapiens), sequence (Q86YV6 whole entry): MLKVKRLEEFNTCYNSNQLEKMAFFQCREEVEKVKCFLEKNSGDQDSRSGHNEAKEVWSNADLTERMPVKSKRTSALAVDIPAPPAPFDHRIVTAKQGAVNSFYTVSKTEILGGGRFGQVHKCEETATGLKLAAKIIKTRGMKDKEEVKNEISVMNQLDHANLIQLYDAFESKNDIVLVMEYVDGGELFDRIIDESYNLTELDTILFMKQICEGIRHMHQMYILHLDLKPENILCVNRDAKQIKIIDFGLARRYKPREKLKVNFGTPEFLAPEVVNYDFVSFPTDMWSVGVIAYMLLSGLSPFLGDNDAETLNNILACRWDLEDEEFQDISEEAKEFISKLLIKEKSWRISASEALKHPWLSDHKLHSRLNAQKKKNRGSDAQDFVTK

[17] = target: Tyrosine-protein kinase JAK2 (Homo sapiens) (UniProt O60674); details: Compound concentration 1000.0 nM
[18] = target: Tyrosine-protein kinase Lyn (Homo sapiens) (UniProt P07948); details: Compound concentration 1000.0 nM
[19] = target: Receptor tyrosine-protein kinase erbB-3 (Homo sapiens) (UniProt P21860); details: Compound concentration 1000.0 nM
[20] = target: Serine/threonine-protein kinase 17A (Homo sapiens) (UniProt Q9UEE5); details: Compound concentration 1000.0 nM
[21] = target: Activin receptor type-2B (Homo sapiens) (UniProt Q13705); details: Compound concentration 1000.0 nM
[22] = target: Phosphatidylinositol 4-phosphate 5-kinase type-1 gamma (Homo sapiens) (UniProt O60331); details: Compound concentration 1000.0 nM
[23] = target: D(1A) dopamine receptor (Homo sapiens) (UniProt P21728); details: Compound concentration 10.0 uM
[24] = target: Ribosomal protein S6 kinase alpha-6 (Homo sapiens) (UniProt Q9UK32); details: Compound concentration 1000.0 nM; remark: listed apart in the source
[25] = target: Calcium/calmodulin-dependent protein kinase type II subunit alpha (Homo sapiens) (UniProt Q9UQM7); details: Compound concentration 1000.0 nM
Calcium/calmodulin-dependent protein kinase type II subunit alpha (Homo sapiens), sequence (Q9UQM7 whole entry): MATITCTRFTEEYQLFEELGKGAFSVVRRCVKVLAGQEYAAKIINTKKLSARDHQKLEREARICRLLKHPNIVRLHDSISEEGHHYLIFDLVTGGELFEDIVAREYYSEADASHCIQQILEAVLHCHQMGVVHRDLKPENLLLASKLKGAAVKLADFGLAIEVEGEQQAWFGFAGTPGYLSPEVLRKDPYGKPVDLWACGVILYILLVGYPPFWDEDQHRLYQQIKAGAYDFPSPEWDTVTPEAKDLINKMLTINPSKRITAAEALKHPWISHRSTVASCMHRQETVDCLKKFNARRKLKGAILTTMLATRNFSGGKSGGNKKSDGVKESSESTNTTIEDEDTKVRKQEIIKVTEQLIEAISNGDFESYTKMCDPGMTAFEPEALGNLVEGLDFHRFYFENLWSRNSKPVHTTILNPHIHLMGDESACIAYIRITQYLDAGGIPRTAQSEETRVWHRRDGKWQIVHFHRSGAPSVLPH

[26] = target: Tyrosine-protein kinase Yes (Homo sapiens) (UniProt P07947); details: Compound concentration 1000.0 nM
[27] = target: Serine/threonine-protein kinase SIK3 (Homo sapiens) (UniProt Q9Y2K2); details: Compound concentration 1000.0 nM
[28] = target: RAF proto-oncogene serine/threonine-protein kinase (Homo sapiens) (UniProt P04049); details: Compound concentration 1000.0 nM
[29] = target: Serine/threonine-protein kinase OSR1 (Homo sapiens) (UniProt O95747); details: Compound concentration 1000.0 nM
[30] = target: Serine/threonine-protein kinase PAK 2 (Homo sapiens) (UniProt Q13177); details: Compound concentration 1000.0 nM
[31] = target: Dual specificity mitogen-activated protein kinase kinase 5 (Homo sapiens) (UniProt Q13163); details: Compound concentration 1000.0 nM
Dual specificity mitogen-activated protein kinase kinase 5 (Homo sapiens), sequence (Q13163 whole entry): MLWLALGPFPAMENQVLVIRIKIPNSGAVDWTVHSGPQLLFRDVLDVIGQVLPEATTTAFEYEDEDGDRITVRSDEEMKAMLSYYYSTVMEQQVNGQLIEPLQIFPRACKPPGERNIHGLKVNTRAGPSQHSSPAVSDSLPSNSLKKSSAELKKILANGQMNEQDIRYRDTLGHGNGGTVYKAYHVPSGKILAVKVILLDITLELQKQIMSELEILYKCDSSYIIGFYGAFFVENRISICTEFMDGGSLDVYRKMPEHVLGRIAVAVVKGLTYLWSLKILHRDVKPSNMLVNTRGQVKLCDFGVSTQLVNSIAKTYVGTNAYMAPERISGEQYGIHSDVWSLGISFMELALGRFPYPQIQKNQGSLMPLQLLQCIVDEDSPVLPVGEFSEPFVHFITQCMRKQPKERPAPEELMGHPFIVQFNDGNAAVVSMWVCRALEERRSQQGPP

[32] = tested on: Receptor-type tyrosine-protein kinase FLT3 (Homo sapiens), P36888 [D835Y]; details: Compound concentration 1000.0 nM
[33] = target: Leucine-rich repeat serine/threonine-protein kinase 2 (Homo sapiens) (UniProt Q5S007); details: Compound concentration 1000.0 nM
[34] = target: Serine/threonine-protein kinase TAO2 (Homo sapiens) (UniProt Q9UL54); details: Compound concentration 1000.0 nM
Serine/threonine-protein kinase TAO2 (Homo sapiens), sequence (Q9UL54 whole entry): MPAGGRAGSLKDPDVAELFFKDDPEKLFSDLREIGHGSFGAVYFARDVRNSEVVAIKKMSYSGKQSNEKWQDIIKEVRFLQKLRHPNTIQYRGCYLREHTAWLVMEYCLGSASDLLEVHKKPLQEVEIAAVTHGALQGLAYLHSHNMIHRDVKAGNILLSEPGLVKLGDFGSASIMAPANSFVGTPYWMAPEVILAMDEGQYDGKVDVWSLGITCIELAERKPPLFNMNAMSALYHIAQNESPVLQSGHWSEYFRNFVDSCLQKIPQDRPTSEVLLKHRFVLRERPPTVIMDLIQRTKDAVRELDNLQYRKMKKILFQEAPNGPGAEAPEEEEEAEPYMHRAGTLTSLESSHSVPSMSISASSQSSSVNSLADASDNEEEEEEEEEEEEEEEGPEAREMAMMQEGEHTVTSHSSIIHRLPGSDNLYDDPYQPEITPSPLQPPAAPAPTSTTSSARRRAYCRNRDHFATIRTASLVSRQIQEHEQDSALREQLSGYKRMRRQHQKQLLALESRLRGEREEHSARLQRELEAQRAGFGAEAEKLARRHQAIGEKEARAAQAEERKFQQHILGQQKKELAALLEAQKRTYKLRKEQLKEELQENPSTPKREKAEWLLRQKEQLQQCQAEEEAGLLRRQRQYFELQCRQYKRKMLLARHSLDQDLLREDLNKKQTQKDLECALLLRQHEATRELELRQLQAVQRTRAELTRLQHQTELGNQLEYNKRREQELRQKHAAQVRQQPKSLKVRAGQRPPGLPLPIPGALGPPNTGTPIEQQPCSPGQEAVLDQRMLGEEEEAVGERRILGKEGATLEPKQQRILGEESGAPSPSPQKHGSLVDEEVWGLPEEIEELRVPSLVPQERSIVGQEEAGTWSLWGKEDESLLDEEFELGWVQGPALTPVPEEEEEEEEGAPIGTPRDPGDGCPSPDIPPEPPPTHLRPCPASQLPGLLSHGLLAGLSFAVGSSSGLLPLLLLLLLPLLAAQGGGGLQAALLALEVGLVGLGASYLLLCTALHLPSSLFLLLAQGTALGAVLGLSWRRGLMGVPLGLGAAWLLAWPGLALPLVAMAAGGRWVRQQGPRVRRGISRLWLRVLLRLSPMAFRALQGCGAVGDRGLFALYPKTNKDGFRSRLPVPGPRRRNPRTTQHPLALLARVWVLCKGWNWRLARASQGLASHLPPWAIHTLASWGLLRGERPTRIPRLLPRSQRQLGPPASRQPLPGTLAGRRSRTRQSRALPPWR

[35] = target: Dual specificity testis-specific protein kinase 1 (Homo sapiens) (UniProt Q15569); details: Compound concentration 1000.0 nM
Dual specificity testis-specific protein kinase 1 (Homo sapiens), sequence (Q15569 whole entry, looked up): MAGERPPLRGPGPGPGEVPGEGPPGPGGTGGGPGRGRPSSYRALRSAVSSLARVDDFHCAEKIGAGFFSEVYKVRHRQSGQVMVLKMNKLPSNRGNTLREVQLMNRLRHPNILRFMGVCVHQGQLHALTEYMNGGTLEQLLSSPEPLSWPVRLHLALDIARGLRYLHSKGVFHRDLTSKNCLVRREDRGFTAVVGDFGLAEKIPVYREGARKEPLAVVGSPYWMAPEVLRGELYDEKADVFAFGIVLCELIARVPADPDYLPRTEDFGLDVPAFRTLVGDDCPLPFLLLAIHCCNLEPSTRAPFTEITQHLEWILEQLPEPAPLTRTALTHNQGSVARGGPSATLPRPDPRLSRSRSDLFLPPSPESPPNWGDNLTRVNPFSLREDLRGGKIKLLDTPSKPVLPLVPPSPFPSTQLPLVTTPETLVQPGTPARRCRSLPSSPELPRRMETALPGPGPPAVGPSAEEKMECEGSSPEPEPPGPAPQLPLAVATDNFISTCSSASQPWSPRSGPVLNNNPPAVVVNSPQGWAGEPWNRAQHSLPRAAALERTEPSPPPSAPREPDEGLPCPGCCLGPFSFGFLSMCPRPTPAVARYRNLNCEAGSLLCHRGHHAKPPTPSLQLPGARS

[36] = target: Histamine H4 receptor (Homo sapiens) (UniProt Q9H3N8); details: Compound concentration 10.0 uM
[37] = target: Protein kinase C epsilon type (Homo sapiens) (UniProt Q02156); details: Compound concentration 1000.0 nM
[38] = target: Mitogen-activated protein kinase kinase kinase 9 (Homo sapiens) (UniProt P80192); details: Compound concentration 1000.0 nM
[39] = target: Ankyrin repeat and protein kinase domain-containing protein 1 (Homo sapiens) (UniProt Q8NFD2); details: Compound concentration 1000.0 nM
Ankyrin repeat and protein kinase domain-containing protein 1 (Homo sapiens), sequence (Q8NFD2 whole entry, the tested form may be a part): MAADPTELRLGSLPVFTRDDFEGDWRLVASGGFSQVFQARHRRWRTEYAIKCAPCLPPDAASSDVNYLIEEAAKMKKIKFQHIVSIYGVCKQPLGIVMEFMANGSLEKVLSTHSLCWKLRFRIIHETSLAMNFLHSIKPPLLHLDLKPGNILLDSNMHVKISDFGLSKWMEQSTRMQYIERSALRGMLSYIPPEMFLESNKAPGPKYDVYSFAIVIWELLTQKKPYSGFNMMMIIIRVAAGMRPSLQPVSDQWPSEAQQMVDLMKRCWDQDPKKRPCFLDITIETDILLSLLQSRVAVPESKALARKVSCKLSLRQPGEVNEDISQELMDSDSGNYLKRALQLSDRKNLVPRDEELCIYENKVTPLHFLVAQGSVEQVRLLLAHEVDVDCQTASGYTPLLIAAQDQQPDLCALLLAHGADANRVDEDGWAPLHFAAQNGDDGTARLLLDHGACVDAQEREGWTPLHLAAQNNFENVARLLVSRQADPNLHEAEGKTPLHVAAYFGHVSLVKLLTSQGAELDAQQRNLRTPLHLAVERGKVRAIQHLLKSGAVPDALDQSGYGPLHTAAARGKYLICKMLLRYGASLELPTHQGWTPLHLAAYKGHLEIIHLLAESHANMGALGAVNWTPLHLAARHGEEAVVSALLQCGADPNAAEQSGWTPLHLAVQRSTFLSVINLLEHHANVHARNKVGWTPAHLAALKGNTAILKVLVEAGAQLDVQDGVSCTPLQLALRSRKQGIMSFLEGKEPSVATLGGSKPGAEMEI

[40] = target: Serine/threonine-protein kinase/endoribonuclease IRE1 (Homo sapiens) (UniProt O75460); details: Compound concentration 1000.0 nM
[41] = target: Serine/threonine-protein kinase SIK1 (Homo sapiens, UniProt P57059); details: Compound concentration 1000.0 nM
[42] = target: Misshapen-like kinase 1 (Homo sapiens) (UniProt Q8N4C8); details: Compound concentration 1000.0 nM
[43] = target: Insulin receptor-related protein (Homo sapiens) (UniProt P14616); details: Compound concentration 1000.0 nM
[44] = target: Serine/threonine-protein kinase Nek7 (Homo sapiens) (UniProt Q8TDX7); details: Compound concentration 1000.0 nM

Cyclin-dependent kinase 3 (Homo sapiens), sequence (Q00526 whole entry, looked up): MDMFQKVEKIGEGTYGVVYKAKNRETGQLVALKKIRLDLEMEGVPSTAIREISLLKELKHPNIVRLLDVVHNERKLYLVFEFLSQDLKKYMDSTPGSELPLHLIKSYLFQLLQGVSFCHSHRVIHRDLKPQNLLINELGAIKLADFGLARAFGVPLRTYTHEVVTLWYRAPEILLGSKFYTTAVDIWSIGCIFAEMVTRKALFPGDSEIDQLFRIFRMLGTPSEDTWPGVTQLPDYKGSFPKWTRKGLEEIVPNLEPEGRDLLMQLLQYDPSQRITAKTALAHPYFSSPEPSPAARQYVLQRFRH

Work on `CCCCN(CCCC)C(=O)CN1C[C@@H](c2cc(OC)c3c(c2)OCO3)[C@H](C(=O)O)[C@H]1CC(C)(C)CCC` [A-545] yielded a residual activity [1] of 88.1%, a residual activity [2] of 88.1% and a residual activity [3] of 100%. The residual activity [4] was 77.2%, the residual activity [5] was 100% and the residual activity [6] was 100%. For the same molecule, the residual activity [7] was 95.8%, the residual activity [8] was 94.8% and the residual activity [9] was 98.3%. The residual activity [10] was 96.6%, the residual activity [11] was 91.6% and the residual activity [12] was 100%. For the same molecule, the residual activity [13] was 95.9%, the residual activity [14] was 98.4% and the residual activity [15] was 79%. For the same molecule, the residual activity [16] was 100%, the residual activity [17] was 91% and the residual activity [18] was 75.1%. For the same molecule, the residual activity [19] was 100%, the residual activity [20] was 100% and the residual activity [21] was 85.1%. The residual activity [22] was 100%, the inhibition [23] was 16.6% and the residual activity [24] was 79.2%. It also gave a residual activity [25] of 100%, a residual activity [26] of 95.3% and a residual activity [27] of 74.8%. For the same molecule, the residual activity [28] was 93.3%, the residual activity [29] was 94% and the residual activity [30] was 83.5%. It also gave a residual activity [31] of 100%, a residual activity [32] of 75.2% and a residual activity [33] of 65.9%. For the same molecule, the residual activity [34] was 95.4%, the residual activity [35] was 94.3% and the inhibition [36] was 4.1%. The residual activity [37] was 100%, the residual activity [38] was 98.8% and the residual activity [39] was 95.7%. It also gave a residual activity [40] of 100%, a residual activity [41] of 100% and a residual activity [42] of 100%. The residual activity [43] was 93.2% and the residual activity [44] was 86.6%.

`CCCCN(CCCC)C(=O)CN1C[C@H](c2cc(OC)c3c(c2)OCO3)[C@@H](C(=O)O)[C@@H]1CC(C)(C)CCC` [ABT-546] was tested, and the residual activity [1] was 100%, the residual activity [2] was 100% and the residual activity [3] was 83.7%. For the same molecule, the residual activity [4] was 85.5%, the residual activity [5] was 100% and the residual activity [6] was 100%. It also gave a residual activity [7] of 85.9%, a residual activity [8] of 96.5% and a residual activity [9] of 95.6%. It also gave a residual activity [10] of 76.4%, a residual activity [11] of 100% and a residual activity [12] of 100%. For the same molecule, the residual activity [13] was 72.2%, the residual activity [14] was 81.7% and the residual activity [15] was 100%. The residual activity [16] was 99.1%, the residual activity [17] was 100% and the residual activity [18] was 100%. For the same molecule, the residual activity [19] was 100%, the residual activity [20] was 100% and the residual activity [21] was 100%. It also gave a residual activity [22] of 65.9%, an inhibition [23] of 4.66% and a residual activity [24] of 100%. It also gave a residual activity [25] of 100%, a residual activity [26] of 100% and a residual activity [27] of 60.5%. For the same molecule, the residual activity [28] was 100%, the residual activity [29] was 89.5% and the residual activity [30] was 100%. The residual activity [31] was 100%, the residual activity [32] was 100% and the residual activity [33] was 38%. For the same molecule, the residual activity [34] was 71.1%, the residual activity [35] was 100% and the inhibition [36] was -0.606%. The residual activity [37] was 100%, the residual activity [38] was 100% and the residual activity [39] was 55.1%. For the same molecule, the residual activity [40] was 70.6%, the residual activity [41] was 100% and the residual activity [42] was 88.4%. It also gave a residual activity [43] of 100% and a residual activity [44] of 100%.
